The text below walks through data of patent US9157121B2, “Method of treatment based on polymorphisms of the KCNQ1 gene” (Vanda Pharmaceuticals, Inc., priority 2009, dated 2015).

Structures are written as SMILES. Several values for one entry are separate records, joined by “and”; a condition that tells them apart may be missing. Equal entries are not always repeated.

The subject of data set [1] is QTc interval. As to the kind of experiment: QTcF change following iloperidone or ziprasidone administration, by KCNQ1 and CYP2D6 genotype. It is filed as in vivo, human. The note with it: for QTcFmax Change: change from baseline. How it is done:
The DNA variants in KCNQ1 noted above were examined for correlation with iloperidone-induced QT prolongation.
Individuals from an earlier study of CYP2D6 genotypes and a predisposition to QT prolongation were genotyped at each of the KCNQ1 SNPs above. 22 individuals had been given a dose of 8 mg of iloperidone b.i.d., 30 had been given 12 mg b.i.d., and 22 had been given 24 mg q.d.
The results were similar when ziprasidone was administered at a dosage of 80 mg b.i.d. The QTc changes for each genotype are shown below in Tables 4 and 5.
Tables 10 and 11 below show CYP2D6 metabolizer status against QTcFmax change from baseline for individuals having GG and non-GG genotypes, respectively, at the KCNQ1 79764 position SNP.
In order to assess the CYP2D6 component to such prolongation, QTc change was separately compared to the CYP2D6G1846A and CYP2D6C100T polymorphisms.
Tables 14 and 15 below show QTc changes in individuals grouped according to their KCNQ1 79764, CYP2D6G1846A, and CYP2D6C100T genotypes. […] Similarly, individuals who were GG at KCNQ1 79764 and had one or two mutant alleles at the CYP2D6 loci (i.e., AG or AA at CYP2D6G1846A and CT or TT at CYP2D6C100T) experienced the greatest QT prolongation.

A further data set addresses CYP2D6 (Homo sapiens, UniProt P10635). The settings on record: cited from earlier work.
Another data set deals with QT interval. The data set is described as follows: QT prolongation following iloperidone in 174 individuals genotyped at SNP_A-2279707 (rs179407). In kind it is in vivo, human. The settings on record: oral 24 mg/day B.I.D. for two weeks; for High QT, + test (number of individuals) / Low QT, + test (number of individuals): rs179407 genotype TT; for High QT, − test (number of individuals) / Low QT, − test (number of individuals): rs179407 genotype not TT; for Odds Ratio: rs179407 TT versus not TT.

Data set [2] concerns QTc interval. The note with it: cited from earlier work.
For data set [3], the system named is QTc interval. The note with it: cited from earlier work; for QTc prolongation: comparison of several antipsychotics.

Sequence of CYP2D6 (P10635 whole entry): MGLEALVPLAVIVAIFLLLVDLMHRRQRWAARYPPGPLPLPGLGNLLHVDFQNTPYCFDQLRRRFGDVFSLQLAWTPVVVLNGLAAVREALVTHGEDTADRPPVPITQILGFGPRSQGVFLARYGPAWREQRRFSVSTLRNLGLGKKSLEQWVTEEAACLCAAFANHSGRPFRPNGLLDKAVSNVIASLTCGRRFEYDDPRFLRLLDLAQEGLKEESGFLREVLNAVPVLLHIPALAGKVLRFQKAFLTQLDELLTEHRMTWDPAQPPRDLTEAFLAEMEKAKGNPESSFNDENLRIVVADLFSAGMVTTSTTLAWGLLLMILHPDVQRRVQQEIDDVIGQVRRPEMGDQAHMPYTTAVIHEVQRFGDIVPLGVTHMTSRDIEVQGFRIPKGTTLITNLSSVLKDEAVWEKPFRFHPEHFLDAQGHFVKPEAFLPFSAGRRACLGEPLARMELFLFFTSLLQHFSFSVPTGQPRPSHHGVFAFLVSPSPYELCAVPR

With `COc1cc(C(C)=O)ccc1OCCCN1CCC(c2noc3cc(F)ccc23)CC1` [Iloperidone], the “QTcFmax Change” value with QTc interval [1] (KCNQ1 79764 genotype GG, CYP2D6 metabolizer status Extensive) came out at 16.4 ms; in the data set with QTc interval [1] (KCNQ1 79764 genotype GG, CYP2D6 metabolizer status Intermediate), 18.1 ms; with QTc interval [1] (KCNQ1 79764 genotype GG, CYP2D6 metabolizer status Poor), 33.6 ms; with QTc interval [1] (KCNQ1 79764 genotype Non-GG, CYP2D6 metabolizer status Extensive) it was 8.3 ms; in the data set with QTc interval [1] (KCNQ1 79764 genotype Non-GG, CYP2D6 metabolizer status Intermediate) it was 3.1 ms; with QTc interval [1] (KCNQ1 79764 genotype Non-GG, CYP2D6 metabolizer status Poor) it was 24.6 ms. Moreover, the QTcF change stood at 10.38 ms in the data set with QTc interval [1] (iloperidone 8 mg b.i.d., 12 mg b.i.d. or 24 mg q.d., KCNQ1 79764 SNP genotype CC); 6.80 ms with QTc interval [1] (iloperidone 8 mg b.i.d., 12 mg b.i.d. or 24 mg q.d., KCNQ1 79764 SNP genotype CG); 17.58 ms in the data set on QTc interval [1] (iloperidone 8 mg b.i.d., 12 mg b.i.d. or 24 mg q.d., KCNQ1 79764 SNP genotype GG); 7.83 ms in the data set on QTc interval [1] (iloperidone 8 mg b.i.d., 12 mg b.i.d. or 24 mg q.d., KCNQ1 79764 SNP genotype Non-GG); 10.8 ms in the data set on QTc interval [1] (iloperidone, CYP2D6C100T genotype CC); 16.9 ms in the data set on QTc interval [1] (iloperidone, CYP2D6C100T genotype CT). Besides, the QTcF change in the data set with QTc interval [1] (iloperidone, CYP2D6C100T genotype Non-CC) was 19.2 ms; with QTc interval [1] (iloperidone, CYP2D6C100T genotype TT) it was 31.3 ms; with QTc interval [1] (iloperidone, CYP2D6G1846A genotype AA) it was 41.6 ms; with QTc interval [1] (iloperidone, CYP2D6G1846A genotype AG), 15.9 ms; with QTc interval [1] (iloperidone, CYP2D6G1846A genotype GG) it was 11.1 ms; in the data set with QTc interval [1] (iloperidone, CYP2D6G1846A genotype Non-GG) it was 18.5 ms. Further, the QTcF change was 7.21 ms in the data set on QTc interval [1] (iloperidone, KCNQ1 78927 position SNP genotype AA); 9.19 ms in the data set on QTc interval [1] (iloperidone, KCNQ1 78927 position SNP genotype AC); 14.08 ms in the data set on QTc interval [1] (iloperidone, KCNQ1 78927 position SNP genotype CC); 6.46 ms in the data set on QTc interval [1] (iloperidone, KCNQ1 78927 position SNP genotype Non-CC); 19.2 (n = 15) msec in the data set on QTc interval [1] (iloperidone, KCNQ1 79764 GG and CYP2D6C100T CC); 23.5 (n = 10) msec with QTc interval [1] (iloperidone, KCNQ1 79764 GG and CYP2D6C100T non-CC). The QTcF change in the data set with QTc interval [1] (iloperidone, KCNQ1 79764 GG and CYP2D6G1846A GG) is on record as 19.5 (n = 15) msec; in the data set on QTc interval [1] (iloperidone, KCNQ1 79764 GG and CYP2D6G1846A non-GG) it was 25.5 (n = 10) msec; with QTc interval [1] (iloperidone, KCNQ1 79764 non-GG and CYP2D6C100T CC), 7.4 (n = 35) msec; in the data set on QTc interval [1] (iloperidone, KCNQ1 79764 non-GG and CYP2D6C100T non-CC) it was 12.6 (n = 7) msec; with QTc interval [1] (iloperidone, KCNQ1 79764 non-GG and CYP2D6G1846A GG), 7.6 (n = 34) msec; in the data set with QTc interval [1] (iloperidone, KCNQ1 79764 non-GG and CYP2D6G1846A non-GG), 9.6 (n = 6) msec. For the same compound, the QTcF change in the data set with QTc interval [1] (iloperidone, KCNQ1 286414 position SNP genotype AA) is 12.50 ms and 12.51 ms; in the data set on QTc interval [1] (iloperidone, KCNQ1 286414 position SNP genotype AG) it was 3.15 ms; in the data set on QTc interval [1] (iloperidone, KCNQ1 286414 position SNP genotype GG), 10.34 ms; in the data set on QTc interval [1] (iloperidone, KCNQ1 286414 position SNP genotype Non-AA), 5.16 ms. In addition, in the data set on QTc interval [1] (iloperidone, KCNQ1 79764 SNP), the “average QTc change, GG genotype relative to non-GG genotype” value is “more than twice the change in individuals with a non-GG genotype”. Further, the metabolizing enzyme entry at CYP2D6 is “metabolized by CYP2D6”. The “High QT, + test (number of individuals)” value was 102 in the data set on QT interval (threshold QT > 5 msec), 64 with QT interval (threshold QT > 15 msec) and 26 in the data set on QT interval (threshold QT > 30 msec). For the same compound, the “Low QT, + test (number of individuals)” value with QT interval (threshold QT > 5 msec) worked out at 47; in the data set on QT interval (threshold QT > 15 msec) it was 85; in the data set on QT interval (threshold QT > 30 msec), 123. For the same compound, the “High QT, − test (number of individuals)” value in the data set with QT interval (threshold QT > 5 msec) was determined as 15; with QT interval (threshold QT > 15 msec), 9; with QT interval (threshold QT > 30 msec) it was 2. The “Low QT, − test (number of individuals)” value turned out to be 19 in the data set with QT interval (threshold QT > 5 msec), 25 in the data set with QT interval (threshold QT > 15 msec) and 32 in the data set on QT interval (threshold QT > 30 msec). The results for the “Odds Ratio” value in the data set on QT interval (threshold QT > 5 msec), in the data set with QT interval (threshold QT > 15 msec) and with QT interval (threshold QT > 30 msec) were 2.749, 2.092 and 3.382, respectively. Further, in the data set on QTc interval [2] (adding an inhibitor of CYP2D6), the “effect on the QTcF duration with metabolic inhibition” value is “increases the effect of iloperidone on the QTcF duration”. Moreover, the “effect on QTc duration” value in the data set with QTc interval [2] (in vivo) was “some effects on QTc duration”.

`OCCOCCN1CCN(C2=Nc3ccccc3Sc3ccccc32)CC1` [Quetiapine]: the QTc prolongation entry in the data set with QTc interval [3] is listed as “associated with a prolongation of the QTc interval”.

`O=C1Cc2cc(CCN3CCN(c4nsc5ccccc45)CC3)c(Cl)cc2N1` [Ziprasidone, ziprasidone]: the QTc prolongation result in the data set with QTc interval [3] was “highest degree of QTc prolongation, followed by ziprasidone”. Besides, the QTcF change was 8.30 ms in the data set on QTc interval [1] (ziprasidone 80 mg b.i.d., KCNQ1 79764 SNP genotype CC); 6.19 ms with QTc interval [1] (ziprasidone 80 mg b.i.d., KCNQ1 79764 SNP genotype CG); 15.32 ms in the data set on QTc interval [1] (ziprasidone 80 mg b.i.d., KCNQ1 79764 SNP genotype GG); 6.75 ms in the data set on QTc interval [1] (ziprasidone 80 mg b.i.d., KCNQ1 79764 SNP genotype Non-GG).

Regarding `O=C(CCCN1CCC(O)(c2ccc(Cl)cc2)CC1)c1ccc(F)cc1` [haloperidol], the “increase in QTc with metabolic inhibition” value in the data set on QTc interval [3] (with metabolic inhibitors of the CYP450 isoenzyme responsible for the metabolism of each drug) is on record as “doubling of QTc”.

For the compound `Cc1cc2c(s1)Nc1ccccc1N=C2N1CCN(C)CC1` [olanzapine], the QTc prolongation result in the data set with QTc interval [3] is “associated with a prolongation of the QTc interval”.

Consider `Cc1nc2n(c(=O)c1CCN1CCC(c3noc4cc(F)ccc34)CC1)CCCC2` [risperidone], for which the QTc prolongation entry with QTc interval [3] is listed as “associated with a prolongation of the QTc interval”.
